Structures are written as SMILES.

In test [1] the test system is wild type HIV-1. Briefly: microbe, parasite or virus in culture. Type of test: cell-based, human immunodeficiency virus type 1 (HIV-1). Conditions: Human immunodeficiency virus 1, Hela-JC53.
Test [2] relates to HIV-1 K103N-L100I mutant. Description: microbe, parasite or virus in culture. Type of test: cell-based, human immunodeficiency virus type 1 (HIV-1). Conditions: Human immunodeficiency virus 1, HeLa, read-out: EC50 mutant K103N-L100I, mutant K103N-L100I.

Broadly, the EC50 is the midpoint of the concentration-response curve. Turning to `Cc1cc(-c2cc3ccccc3[nH]2)cc(C)c1Oc1nc(Nc2ccc(C#N)cc2)nc2ccn(C)c12` [Example 86, 4-(4-(4-(1H-indol-2-yl)-2,6-dimethylphenoxy)-5-methyl-5H-pyrrolo[3,2-d]pyrimidin-2-ylamino)benzonitrile], the EC50 in test [1] and in test [2] was greater than 0.01 µM each time.

Regarding `COc1cncc(-c2cc(C)c(Oc3nc(Nc4ccc(C#N)cc4)nc4ccn(C)c34)c(C)c2)c1` [Example 87, 4-(4-(4-(5-methoxypyridin-3-yl)-2,6-dimethylphenoxy)-5-methyl-5H-pyrrolo[3,2-d]pyrimidin-2-ylamino) benzonitrile], the EC50 is 0.001 to 0.01 µM in test [1] and greater than 0.01 µM in test [2].

As to `Cc1cc(-c2ccc(C(N)=O)cc2)cc(C)c1Oc1nc(Nc2ccc(C#N)cc2)nc2c(Cl)cn(C)c12` [Example 88, 4′-(7-chloro-2-(4-cyanophenylamino)-5-methyl-5H-pyrrolo[3,2-d]pyrimidin-4-yloxy)-3′,5′-dimethylbiphenyl-4-carboxamide], the 50% effective concentration (EC50) in test [1] and in test [2] was 0.001 to 0.01 µM each time.

Take `Cc1cc(-c2ccc(C(=O)N(C)C)cc2)cc(C)c1Oc1nc(Nc2ccc(C#N)cc2)nc2ccn(C)c12` [Example 89, 4′-(2-(4-cyanophenylamino)-5-methyl-5H-pyrrolo[3,2-d]pyrimidin-4-yloxy)-N,N,3′,5′-tetramethylbiphenyl-4-carboxamide]: the EC50 was 0.001 to 0.01 µM in test [1] and greater than 0.01 µM in test [2].

Turning to `Cc1cc(-c2ccc(C(=O)N3CCC3)cc2)cc(C)c1Oc1nc(Nc2ccc(C#N)cc2)nc2ccn(C)c12` [Example 90], the EC50 in test [1] is 0.001 to 0.01 µM; in test [2], greater than 0.01 µM.

For the compound `Cc1cc(-c2ccc(C(=O)N3CCC(C#N)C3)cc2)cc(C)c1Oc1nc(Nc2ccc(C#N)cc2)nc2ccn(C)c12` (stereo not drawn) [Example 91, 1-(4′-(2-(4-cyanophenylamino)-5-methyl-5H-pyrrolo[3,2-d]pyrimidin-4-yloxy)-3′,5′-dimethylbiphenylcarbonyl) pyrrolidine-3-carbonitrile], the EC50 in test [1] and in test [2] was greater than 0.01 µM each time.

As to `Cc1cc(-c2ccc(C(=O)NC3CC3)cc2)cc(C)c1Oc1nc(Nc2ccc(C#N)cc2)nc2ccn(C)c12` [Example 92, 4′-(2-(4-cyanophenylamino)-5-methyl-5H-pyrrolo[3,2-d]pyrimidin-4-yloxy)-N-cyclopropyl-3′,5′-dimethylbiphenyl-4-carboxamide], the EC50 in test [1] and in test [2] was greater than 0.01 µM in each case.

Consider `Cc1cc(-c2ccc(C(=O)N3CCC(O)C3)cc2)cc(C)c1Oc1nc(Nc2ccc(C#N)cc2)nc2ccn(C)c12` (stereo not drawn) [Example 94, 4-(4-(4′-(3-hydroxypyrrolidine-1-carbonyl)-3,5-dimethylbiphenyl-4-yloxy)-5-methyl-5H-pyrrolo[3,2-d]pyrimidin-2-ylamino) benzonitrile], for which the EC50 in test [1] and in test [2] was 0.001 to 0.01 µM in each case.

Regarding `Cc1cc(-c2ccccc2)cc(C)c1Oc1nc(Nc2ccc(C#N)cc2)nc2ccn(C)c12` [Example 95, 4-(4-(3,5-Dimethylbiphenyl-4-yloxy)-5-methyl-5H-pyrrolo[3,2-d]pyrimidin-2-ylamino)benzonitrile], the EC50 in test [1] and in test [2] was greater than 0.01 µM in each case.

Consider `Cc1cc(-c2ccncc2)ccc1Oc1nc(Nc2ccc(C#N)cc2)nc2nc[nH]c12` [Example 98, 4-(6-(2-Methyl-4-(pyridin-4-yl)phenoxy)-7H-purin-2-ylamino)benzonitrile], for which the results for the EC50 in test [1] and in test [2] were less than 0.001 µM and greater than 0.01 µM, respectively.

With `COc1ccc(Cn2cnc3nc(Nc4ccc(C#N)cc4)nc(Oc4c(C)cc(-c5ccncc5)cc4Cl)c32)cc1` [Example 99, 4-(6-(2-chloro-6-methyl-4-(pyridin-4-yl)phenoxy)-7-(4-methoxybenzyl)-7H-purin-2-ylamino)benzonitrile], the EC50 in test [1] is 0.001 to 0.01 µM; in test [2], greater than 0.01 µM.

Consider `Cc1cc(-c2ccncc2)cc(Cl)c1Oc1nc(Nc2ccc(C#N)cc2)nc2nc[nH]c12` [Example 100, 4-(6-(2-Chloro-6-methyl-4-(pyridin-4-yl)phenoxy)-7H-purin-2-ylamino)benzonitrile], for which the EC50 in test [1] is 0.001 to 0.01 µM; in test [2], greater than 0.01 µM.

As to `COc1ccc(Cn2cnc3nc(Nc4ccc(C#N)cc4)nc(Oc4ccc(-c5ccncc5)cc4Cl)c32)cc1` [Example 101, 4-(6-(2-Chloro-4-(pyridin-4-yl)phenoxy)-7-(4-methoxybenzyl)-7H-purin-2-ylamino)benzonitrile], the EC50 in test [1] and in test [2] was greater than 0.01 µM each time.

Take `N#Cc1ccc(Nc2nc(Oc3ccc(-c4ccncc4)cc3Cl)c3[nH]cnc3n2)cc1` [Example 102, 4-(6-(2-Chloro-4-(pyridin-4-yl)phenoxy)-7H-purin-2-ylamino)benzonitrile]: the results for the EC50 in test [1] and in test [2] were less than 0.001 µM and greater than 0.01 µM, respectively.

For the compound `COc1ccc(Cn2cnc3nc(Nc4ccc(C#N)cc4)nc(Oc4c(Cl)cc(-c5ccncc5)cc4Cl)c32)cc1` [Example 103, 4-(6-(2,6-Dichloro-4-(pyridin-4-yl)phenoxy)-7-(4-methoxybenzyl)-7H-purin-2-ylamino)benzonitrile], the EC50 in test [1] was 0.001 to 0.01 µM; in test [2], greater than 0.01 µM.

With `N#Cc1ccc(Nc2nc(Oc3c(Cl)cc(-c4ccncc4)cc3Cl)c3[nH]cnc3n2)cc1` [Example 104, 4-(6-(2,6-Dichloro-4-(pyridin-4-yl)phenoxy)-7H-purin-2-ylamino)benzonitrile], the EC50 in test [1] and in test [2] was 0.001 to 0.01 µM each time.

As for `COc1ccc(Cn2cnc3c(Oc4ccc(-c5ccncc5)cc4)nc(Nc4c(C)cc(C#N)cc4C)nc32)cc1` [Example 105, 4-(9-(4-Methoxybenzyl)-6-(4-(pyridin-4-yl)phenoxy)-9H-purin-2-ylamino)-3,5-dimethylbenzonitrile], the EC50 in test [1] and in test [2] was greater than 0.01 µM throughout.

Take `Cc1cc(C#N)cc(C)c1Nc1nc(Oc2ccc(-c3ccncc3)cc2)c2nc[nH]c2n1` [Example 106, 3,5-Dimethyl-4-(6-(4-(pyridin-4-yl)phenoxy)-9H-purin-2-ylamino)benzonitrile]: the EC50 in test [1] and in test [2] was greater than 0.01 µM throughout.

On to `Cc1cc(-c2ccncc2)cc(C)c1Oc1nc(Nc2ccc(C#N)cc2)nc2ncn(C)c12` [Example 107, 4-(6-(2,6-Dimethyl-4-(pyridin-4-yl)phenoxy)-7-methyl-7H-purin-2-ylamino)benzonitrile], for which the EC50 in test [1] and in test [2] was 0.001 to 0.01 µM throughout.

With `Cc1cc(-c2ccncc2)cc(C)c1Oc1nc(Nc2ccc(C#N)cc2)nc2c1ncn2C` [Example 108, 4-(6-(2,6-dimethyl-4-(pyridin-4-yl)phenoxy)-9-methyl-9H-purin-2-ylamino)benzonitrile], the EC50 in test [1] and in test [2] was 0.001 to 0.01 µM in each case.

Turning to `Cc1cc(-c2ccc(C(N)=O)cc2)cc(C)c1Oc1nc(Nc2ccc(C#N)cc2)nc2c1ncn2C` [Example 109, 4′-(2-(4-cyanophenylamino)-9-methyl-9H-purin-6-yloxy)-3′,5′-dimethylbiphenyl-4-carboxamide], the EC50 in test [1] was less than 0.001 µM; in test [2], 0.001 to 0.01 µM.

`Cc1cc(-c2ccc(C(=O)O)cc2)cc(C)c1Oc1nc(Nc2ccc(C#N)cc2)nc2ncn(C)c12` [Example 110, 4′-(2-(4-Cyanophenylamino)-7-methyl-7H-purin-6-yloxy)-3′,5′-dimethylbiphenyl-4-carboxylic acid]: the EC50 in test [1] and in test [2] was greater than 0.01 µM each time.

Consider `Cn1cnc2nc(Nc3ccc(C#N)cc3)nc(Oc3c(Cl)cc(-c4ccc(C(N)=O)cc4)cc3Cl)c21` [Example 112, 3′,5′-dichloro-4′-(2-(4-cyanophenylamino)-7-methyl-7H-purin-6-yloxy)biphenyl-4-carboxamide], for which the EC50 in test [1] is less than 0.001 µM; in test [2], 0.001 to 0.01 µM.

Turning to `Cc1cc(-c2ccc(S(N)(=O)=O)cc2)cc(Cl)c1Oc1nc(Nc2ccc(C#N)cc2)nc2c1ncn2C` [Example 113, 3′-chloro-4′-(2-(4-cyanophenylamino)-9-methyl-9H-purin-6-yloxy)-5′-methylbiphenyl-4-sulfonamide], the EC50 is less than 0.001 µM in test [1] and 0.001 to 0.01 µM in test [2].

For `Cn1cnc2c(Oc3c(Cl)cc(-c4ccc(C(N)=O)cc4)cc3Cl)nc(Nc3ccc(C#N)cc3)nc21` [Example 114, 3′,5′-dichloro-4′-(2-(4-cyanophenylamino)-9-methyl-9H-purin-6-yloxy)biphenyl-4-carboxamide], the EC50 in test [1] was less than 0.001 µM; in test [2] it was greater than 0.01 µM.

As for `Cc1cc(-c2ccc(S(N)(=O)=O)cc2)cc(Cl)c1Oc1nc(Nc2ccc(C#N)cc2)nc2ncn(C)c12` [Example 115, 3′-chloro-4′-(2-(4-cyanophenylamino)-7-methyl-7H-purin-6-yloxy)-5′-methylbiphenyl-4-sulfonamide], the EC50 in test [1] and in test [2] was less than 0.001 µM each time.

Regarding `Cc1cc(-c2ccc(C(N)=O)cc2)cc(Cl)c1Oc1nc(Nc2ccc(C#N)cc2)nc2ncn(C)c12` [Example 116, 3′-chloro-4′-(2-(4-cyanophenylamino)-7-methyl-7H-purin-6-yloxy)-5′-methylbiphenyl-4-carboxamide], the EC50 is less than 0.001 µM in test [1] and 0.001 to 0.01 µM in test [2].

For the compound `Cc1cc(-c2ccc(C(N)=O)cc2)cc(Cl)c1Oc1nc(Nc2ccc(C#N)cc2)nc2c1ncn2C` [Example 117, 3′-chloro-4′-(2-(4-cyanophenylamino)-9-methyl-9H-purin-6-yloxy)-5′-methylbiphenyl-4-carboxamide], the EC50 in test [1] was less than 0.001 µM; in test [2], 0.001 to 0.01 µM.

As to `Cc1cc(-c2ccc(C(N)=O)nc2)cc(C)c1Oc1nc(Nc2ccc(C#N)cc2)nc2ncn(C)c12` [Example 118, 5-(4-(2-(4-cyanophenylamino)-7-methyl-7H-purin-6-yloxy)-3,5-dimethylphenyl)picolinamide], the EC50 in test [1] and in test [2] was 0.001 to 0.01 µM throughout.

For the compound `Cc1cc(-c2ccc(C(N)=O)nc2)cc(C)c1Oc1nc(Nc2ccc(C#N)cc2)nc2c1ncn2C` [Example 119, 5-(4-(2-(4-cyanophenylamino)-9-methyl-9H-purin-6-yloxy)-3,5-dimethylphenyl)picolinamide], the EC50 was less than 0.001 µM in test [1] and greater than 0.01 µM in test [2].

(Values after patent US8207178B2 (priority 2007, dated 2012).)
